Patent US10617117B2, “Insect repellent composition and method of use” (NEO-INNOVA HEALTHCARE LIMITED, priority 2015, dated 2020)
Entries after “also recorded” stand apart in the source; their conditions may differ.

Tests used:
[1] = test system: biting flies, such as a mosquito; conditions: in vivo; cited from earlier work
[2] = test system: Culex spp., Aedes spp., Mansonia spp., and Verrallina spp.; conditions: compared with Anopheles spp.; cited from earlier work
[3] = human skin; cited from earlier work
Aedes Aegypti = conditions: at circa 50% concentrations, FIG. 1; cited from earlier work
[4] = test system: Aedes aegypti female mosquitoes; test: laboratory arm or hand in cage test (complete protection time); type: in vivo; conditions: Citriodiol as active substance, with vanillin, FIG. 14
Protocol: Complete protection times are calculated as the number of minutes (or hours) elapsed between the time of repellent application and the first mosquito landing or probing. Complete Protection Times are reported herein as a median value of protection time given by each individual. Complete Protection Times are abbreviated herein as CPTs. […]
Complete protection time provided by each product was evaluated by following hand in cage studies as per a modified WHO protocol (HTM/NTD/WHOPES/2009.4).
Typically, the test consisted of inserting a repellent treated arm into a cage measuring 35 cm on each side, containing laboratory bred 200 numbers of non-blood fed Aedes Aegypti mosquitoes which were approximately 5-7 days old and the elapsed time to first landing or probing (which refers to an insect landing and penetrating the skin with its mouthparts, without ingesting blood) was determined. […]
Readiness of the mosquitoes to bite (biting pressure) was checked by inserting un-treated arm for 1 minute prior to inserting treated arm at each 30-minute interval. […] Complete protection time was calculated as the number of minutes (or hours) elapsed between the time of repellent application and the first mosquito landing or probing. […]

[5] = Stability tests, accelerated storage 54° C. for 14 days (discoloration of vanillin); type: physicochemical; conditions: room temperature and 54° C.; antioxidant added to vanillin-containing composition
Protocol: […] The front line accelerated conditions recommend testing at 54° C. for 14 days (see BPR 528/2012: Volume I. Part A, Chapter III: Requirements for Biocide Products, Version 1.1 Nov. 2014).

CCCCN(CCC(=O)OCC)C(C)=O [IR3535, ethyl butylacetylaminopropionate]
CPTs compared with DEET [1]: neither ethyl butylacetylaminopropionate (IR3535) nor Picaridin (KBR 3023) has demonstrated meaningful superiority to DEET

CCN(CC)C(=O)c1cccc(C)c1 [DEET, N,N-Diethyl-3-methylbenzamide]
protection against different mosquito genera [2]: longer against these genera than provided against Anopheles spp.
absorption through skin [3]: absorbed through human skin
CPT at which activity plateaus (Aedes Aegypti): 5 to 6 h

CCC(C)OC(=O)N1CCCCC1CCO (stereo not drawn) [Picaridin]
CPTs compared with DEET [1]: neither ethyl butylacetylaminopropionate (IR3535) nor Picaridin (KBR 3023) has demonstrated meaningful superiority to DEET

O=S([O-])O.[Na+] [sodium bisulphite]
effect of addition of 1% antioxidant on efficacy (CPTs) [4]: still further significant improvement in efficacy
photosensitisation and secondary oxidation (discoloration) of vanillin [5]: Lack of photosensitisation and secondary oxidation of vanillin; also recorded: one significant exception

CCCOC(=O)c1cc(O)c(O)c(O)c1 [propyl gallate]
photosensitisation and secondary oxidation (discoloration) of vanillin [5]: negative

COc1ccc(O)c(C(C)(C)C)c1 [BHA]
photosensitisation and secondary oxidation (discoloration) of vanillin [5]: negative
